Test results reported in patent US10543212B2, “Substituted amines for treating cardiac diseases” (Cardurion Pharmaceuticals, LLC, priority 2017, dated 2020).

Target: T1, Full-length, GST-tagged, human CaMKIIδ (Homo sapiens, UniProt Q13557)
T1 construct: Full-Length, Glutathione-S-Transferase(GST)-Tagged, Human CaMKIIδ was purchased from Carna Biosciences; purchased Carna Biosciences 02-111
Assay: CaMKIIδ binding assay (TR-FRET with BODIPY-labeled probe ligand)
Conditions: CaMKIIδ binding assay, results of Table 2
Procedure, shortened: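 TR-FRET probe-displacement binding: 0.5 nM GST-CaMKIIδ with 10 μg/mL calmodulin, 1 mM CaCl2, 0.21 nM Tb-anti-GST Ab and 300 nM BODIPY probe in HEPES pH 7.6 buffer. Eight-point 4-fold dilutions, 1 hr at room temperature. IC50 from logistic fit; 100% inhibition defined by 3 μM parent compound.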

T1 sequence (Q13557 1-478 isoform Q13557-12): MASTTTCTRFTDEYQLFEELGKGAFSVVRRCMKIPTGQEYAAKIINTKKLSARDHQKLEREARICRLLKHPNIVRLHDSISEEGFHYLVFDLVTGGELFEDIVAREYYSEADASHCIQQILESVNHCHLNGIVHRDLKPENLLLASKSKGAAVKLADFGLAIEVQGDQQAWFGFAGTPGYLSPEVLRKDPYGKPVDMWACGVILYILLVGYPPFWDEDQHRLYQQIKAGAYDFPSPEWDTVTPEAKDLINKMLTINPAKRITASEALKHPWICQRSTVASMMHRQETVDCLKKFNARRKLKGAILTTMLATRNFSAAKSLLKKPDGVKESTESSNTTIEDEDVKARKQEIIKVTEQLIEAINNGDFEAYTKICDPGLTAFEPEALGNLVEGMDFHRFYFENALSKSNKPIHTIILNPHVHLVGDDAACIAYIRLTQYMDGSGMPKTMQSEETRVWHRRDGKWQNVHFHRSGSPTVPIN

| SMILES | IC50 [nM] |
| --- | --- |
| COc1cc2c(cc1Nc1ncc(-c3ccc(Cl)c(O[C@@H](C)Cn4cnnn4)c3)cn1)CCN(C1COC1)CC2 [Example 447, (S)-N-(5-(3-((1-(1H-tetrazol-1-yl)propan-2-yl)oxy)-4-chlorophenyl)pyrimidin-2-yl)-8-methoxy-3-(oxetan-3-yl)-2,3,4,5-tetrahydro-1H-benzo[d]azepin-7-amine] | < 10 |
| C[C@@H](Cn1cnnn1)Oc1cc(-c2cnc(Nc3cc(C4CCN(C5COC5)CC4)ccc3OC(F)(F)F)nc2)ccc1Cl [Example 577, (S)-5-(3-((1-(1H-tetrazol-1-yl)propan-2-yl)oxy)-4-chlorophenyl)-N-(5-(1-(oxetan-3-yl)piperidin-4-yl)-2-(trifluoromethoxy)phenyl)pyrimidin-2-amine] | 10 to 100 |
| COCC(=O)N1CCc2cc(OC)c(Nc3ncc(-c4ccc(Cl)c(O[C@@H](C)Cn5cnnn5)c4)cn3)cc2C1 [Example 500, (S)-1-(7-((5-(3-((1-(1H-tetrazol-1-yl)propan-2-yl)oxy)-4-chlorophenyl)pyrimidin-2-yl)amino)-6-methoxy-3,4-dihydroisoquinolin-2(1H)-yl)-2-methoxyethan-1-one] | 10 to 100 |

Same assay, conditions: CaMKIIδ binding assay; activity class per Table 2

| SMILES | IC50 [nM] |
| --- | --- |
| C[C@@H](Cn1cnnn1)Oc1cc(-c2cnc(Nc3cn([C@@H]4CCNC[C@H]4O)nc3C(F)(F)F)nc2)ccc1Cl (mixture of isomers) [Example 892, trans-4-(4-((5-(3-(((S)-1-(1H-tetrazol-1-yl)propan-2-yl)oxy)-4-chlorophenyl)pyrimidin-2-yl)amino)-3-(trifluoromethyl)-1H-pyrazol-1-yl)piperidin-3-ol] | < 10 |
| CC(=O)OC(C)(C)CN1CC2(CC(n3cc(Nc4ncc(-c5ccc(Cl)c(O[C@@H](C)Cn6cnnn6)c5)cn4)c(C(C)C)n3)C2)C1 [Example 975, (S)-1-(6-(4-((5-(3-((1-(1H-tetrazol-1-yl)propan-2-yl)oxy)-4-chlorophenyl)pyrimidin-2-yl)amino)-3-isopropyl-1H-pyrazol-1-yl)-2-azaspiro[3.3]heptan-2-yl)-2-methylpropan-2-yl acetate] | < 10 |
| C[C@@H](Cn1cnnn1)Oc1cc(-c2cnc(Nc3cn(C4CC5(C4)CN(CCC(F)(F)F)C5)nc3OCC(F)(F)F)nc2)ccc1Cl [Example 998, (S)-5-(3-((1-(1H-tetrazol-1-yl)propan-2-yl)oxy)-4-chlorophenyl)-N-(3-(2,2,2-trifluoroethoxy)-1-(2-(3,3,3-trifluoropropyl)-2-azaspiro[3.3]heptan-6-yl)-1H-pyrazol-4-yl)pyrimidin-2-amine] | < 10 |
| CC(Cn1cnnn1)Oc1cc(-c2cnc(Nc3cn(CC4(O)CCC(N5CCOCC5)CC4)nc3OCC(F)(F)F)nc2)ccc1Cl [Example 912, cis-1-((4-((5-(3-(((S)-1-(1H-tetrazol-1-yl)propan-2-yl)oxy)-4-chlorophenyl)pyrimidin-2-yl)amino)-3-(2,2,2-trifluoroethoxy)-1H-pyrazol-1-yl)methyl)-4-morpholinocyclohexan-1-ol] | < 10 |
| C[C@@H](Cn1cnnn1)Oc1cc(-c2cnc(Nc3cn([C@H]4C[C@H](NC5CCOCC5)C4)nc3OCC(F)(F)F)nc2)ccc1Cl [Example 942, 5-(3-(((S)-1-(1H-tetrazol-1-yl)propan-2-yl)oxy)-4-chlorophenyl)-N-(1-(trans-3-((tetrahydro-2H-pyran-4-yl)amino)cyclobutyl)-3-(2,2,2-trifluoroethoxy)-1H-pyrazol-4-yl)pyrimidin-2-amine] | < 10 |
| CC(C)c1nn(C2CC3(C2)CN(C2(C)CCOCC2)C3)cc1Nc1ncc(-c2ccc(Cl)c(O[C@@H](C)Cn3cnnn3)c2)cn1 [Example 960, (S)-5-(3-((1-(1H-tetrazol-1-yl)propan-2-yl)oxy)-4-chlorophenyl)-N-(3-isopropyl-1-(2-(4-methyltetrahydro-2H-pyran-4-yl)-2-azaspiro[3.3]heptan-6-yl)-1H-pyrazol-4-yl)pyrimidin-2-amine] | < 10 |
| C[C@@H](Cn1cnnn1)Oc1cc(-c2cnc(Nc3cn(C4CC5(C4)CN(C4CCC4)C5)nc3OCC(F)(F)F)nc2)ccc1Cl [Example 933, (S)-5-(3-((1-(1H-tetrazol-1-yl)propan-2-yl)oxy)-4-chlorophenyl)-N-(1-(2-cyclobutyl-2-azaspiro[3.3]heptan-6-yl)-3-(2,2,2-trifluoroethoxy)-1H-pyrazol-4-yl)pyrimidin-2-amine] | < 10 |

Same assay, conditions: Table 2; CaMKIIδ binding assay, activity given as class A/B/C

| SMILES | IC50 [nM] |
| --- | --- |
| C[C@@H](Cn1cnnn1)Oc1cc(-c2cnc(Nc3cn([C@H]4CC[C@@H](N5CC(O)(C(F)(F)F)C5)CC4)nc3C(F)(F)F)nc2)ccc1Cl [Example 856, 1-(cis-4-(4-((5-(3-(((S)-1-(1H-tetrazol-1-yl)propan-2-yl)oxy)-4-chlorophenyl)pyrimidin-2-yl)amino)-3-(trifluoromethyl)-1H-pyrazol-1-yl)cyclohexyl)-3-(trifluoromethyl)azetidin-3-ol] | 10 to 100 |
| C[C@@H](Cn1cnnn1)Oc1cc(-c2cnc(Nc3cn(CC(F)F)nc3C(F)(F)F)nc2)ccc1Cl [Example 743, (S)-5-(3-((1-(1H-tetrazol-1-yl)propan-2-yl)oxy)-4-chlorophenyl)-N-(1-(2,2-difluoroethyl)-3-(trifluoromethyl)-1H-pyrazol-4-yl)pyrimidin-2-amine] | 10 to 100 |
| CCn1cc(Nc2ncc(-c3ccc(Cl)c(O[C@@H](C)Cn4cnnn4)c3)cn2)c(C(=O)O)n1 [Example 876, (S)-4-((5-(3-((1-(1H-tetrazol-1-yl)propan-2-yl)oxy)-4-chlorophenyl)pyrimidin-2-yl)amino)-1-ethyl-1H-pyrazole-3-carboxylic acid] | 10 to 100 |
| CCn1ncc(Nc2ncc(-c3ccc(Cl)c(O[C@@H](C)Cn4cnnn4)c3)cn2)c1C(=O)O [Example 875, (S)-4-((5-(3-((1-(1H-tetrazol-1-yl)propan-2-yl)oxy)-4-chlorophenyl)pyrimidin-2-yl)amino)-1-ethyl-1H-pyrazole-5-carboxylic acid] | 10 to 100 |
| C[C@@H](Cn1cnnn1)Oc1cc(-c2cnc(Nc3sc4c(c3C#N)CCCC4)nc2)ccc1Cl [Example 752, (S)-2-((5-(3-((1-(1H-tetrazol-1-yl)propan-2-yl)oxy)-4-chlorophenyl)pyrimidin-2-yl)amino)-4,5,6,7-tetrahydrobenzo[b]thiophene-3-carbonitrile] | 10 to 100 |
| Cc1ccc(-c2cnc(Nc3cn(C4CCN(C5CCOCC5)CC4)nc3OCC(F)(F)F)nc2)cc1O[C@@H](C)Cn1cnnn1 [Example 788, (S)-5-(3-((1-(1H-tetrazol-1-yl)propan-2-yl)oxy)-4-methylphenyl)-N-(1-(1-(tetrahydro-2H-pyran-4-yl)piperidin-4-yl)-3-(2,2,2-trifluoroethoxy)-1H-pyrazol-4-yl)pyrimidin-2-amine] | < 10 |
| CCOC(=O)c1nn(CC)cc1Nc1ncc(-c2ccc(Cl)c(O[C@@H](C)Cn3cnnn3)c2)cn1 [Example 873, ethyl (S)-4-((5-(3-((1-(1H-tetrazol-1-yl)propan-2-yl)oxy)-4-chlorophenyl)pyrimidin-2-yl)amino)-1-ethyl-1H-pyrazole-3-carboxylate] | < 10 |
| C[C@@H](Cn1cnnn1)Oc1cc(-c2cnc(Nc3cn(C4CCN(C5CCOCC5)CC4)nc3OCCF)nc2)ccc1Cl [Example 825, (S)-5-(3-((1-(1H-tetrazol-1-yl)propan-2-yl)oxy)-4-chlorophenyl)-N-(3-(2-fluoroethoxy)-1-(1-(tetrahydro-2H-pyran-4-yl)piperidin-4-yl)-1H-pyrazol-4-yl)pyrimidin-2-amine] | < 10 |

Same assay, conditions: Table 2; activity class for CaMKIIδ

| SMILES | IC50 [nM] |
| --- | --- |
| CCn1cc(Nc2ncc(-c3ccc(Cl)c(O[C@@H](C)Cn4cnnn4)c3)cn2)c(OCC(F)(F)F)n1 [Example 700, (S)-5-(3-((1-(1H-tetrazol-1-yl)propan-2-yl)oxy)-4-chlorophenyl)-N-(1-ethyl-3-(2,2,2-trifluoroethoxy)-1H-pyrazol-4-yl)pyrimidin-2-amine] | < 10 |
| C[C@@H](Cn1cnnn1)Oc1cc(-c2cnc(Nc3cn([C@H]4CC[C@H](C(=O)O)CC4)nc3C(F)(F)F)nc2)ccc1Cl [Example 626, trans-(S)-4-(4-((5-(3-((1-(1H-tetrazol-1-yl)propan-2-yl)oxy)-4-chlorophenyl)pyrimidin-2-yl)amino)-3-(trifluoromethyl)-1H-pyrazol-1-yl)cyclohexane-1-carboxylic acid] | 10 to 100 |
| C[C@@H](Cn1cnnn1)Oc1cc(-c2cnc(Nc3cn(C4CCCCNC4=O)nc3C(F)(F)F)nc2)ccc1Cl (stereo partly drawn) [Example 629, 3-(4-((5-(3-(((S)-1-(1H-tetrazol-1-yl)propan-2-yl)oxy)-4-chlorophenyl)pyrimidin-2-yl)amino)-3-(trifluoromethyl)-1H-pyrazol-1-yl)azepan-2-one] | < 10 |
| COc1cc(N2C[C@@H]3C[C@H]2CN3)ccc1Nc1ncc(-c2ccc(Cl)c(O[C@@H](C)Cn3cnnn3)c2)cn1 [Example 634, 5-(3-(((S)-1-(1H-tetrazol-1-yl)propan-2-yl)oxy)-4-chlorophenyl)-N-(4-((1S,45)-2,5-diazabicyclo[2.2.1]heptan-2-yl)-2-methoxyphenyl)pyrimidin-2-amine] | 10 to 100 |
| C[C@@H](Cn1cnnn1)Oc1cc(-c2cnc(Nc3cc(C4CCN(C5COC5)CC4)c(F)cc3F)nc2)ccc1Cl [Example 684, (S)-5-(3-((1-(1H-tetrazol-1-yl)propan-2-yl)oxy)-4-chlorophenyl)-N-(2,4-difluoro-5-(1-(oxetan-3-yl)piperidin-4-yl)phenyl)pyrimidin-2-amine] | 10 to 100 |
| C[C@@H](Cn1cnnn1)Oc1cc(-c2cnc(Nc3cn(C4CCOC4)nc3C(F)(F)F)nc2)ccc1Cl (stereo partly drawn) [Example 644, 5-(3-(((S)-1-(1H-tetrazol-1-yl)propan-2-yl)oxy)-4-chlorophenyl)-N-(1-(tetrahydrofuran-3-yl)-3-(trifluoromethyl)-1H-pyrazol-4-yl)pyrimidin-2-amine] | 10 to 100 |
